Source: patent publication US7829568B2, “Substituted 5,6,7,8-tetrahydroimidazo[1,2-a]pyridin-2-ylamine compounds and their use for producing drugs” (Gruenenthal GmbH, priority 2005, dated 2010)

system: batrachotoxin (BTX) binding site of the sodium channel; assay: Affinity to the batrachotoxin (BTX) binding site of the sodium channel; set-up: species or system rat; conditions: [3H]-batrachotoxinin A20 α-benzoate 10 nM; synaptosomes from rat cerebral cortex; test concentration not given

Compound | BTX inhibition (rat) (% inhibition) [%]
CCCCN(C(=O)c1cccc(Cl)c1)c1nc2n(c1C(=O)Nc1ccc3c(c1)OCCO3)CCCC2 [Example 181, 2-[butyl-(3-chloro-benzoyl)-amino]-5,6,7,8-tetrahydro-imidazo[1,2-a]pyridine-3-carboxylic acid (2,3-dihydro-benzo[1,4]dioxin-6-yl)-amide] | 82
COc1cc(OC)c(CN2CCN(C(=O)c3c(N(C)C(=O)c4cccc(Cl)c4)nc4n3CCCC4)CC2)c(OC)c1 [Example 146, 3-chloro-N-methyl-N-{3-[4-(2,4,6-trimethoxy-benzyl)-piperazine-1-carbonyl]-5,6,7,8-tetrahydro-imidazo[1,2-a]pyridin-2-yl}-benzamide] | 70
CCCCN(C(=O)c1cccc(Cl)c1)c1nc2n(c1C(=O)NCCSCc1c(Cl)cccc1Cl)CCCC2 [Example 95, 2-[butyl-(3-chloro-benzoyl)-amino]-5,6,7,8-tetrahydro-imidazo[1,2-a]pyridine-3-carboxylic acid [2-(2,6-dichlor-benzylsulphanyl)-ethyl]-amide] | 68
CCCCN(C(=O)c1cccc(Cl)c1)c1nc2n(c1C(=O)NCc1cccc(C)c1)CCCC2 [Example 113, 2-[butyl-(3-chloro-benzoyl)-amino]-5,6,7,8-tetrahydro-imidazo[1,2-a]pyridine-3-carboxylic acid 3-methyl-benzylamide] | 31
CCCCN(C(=O)c1cccc(Cl)c1)c1nc2n(c1C(=O)NC1CCc3ccccc31)CCCC2 (centres unmarked) [Example 52, 2-[butyl-(3-chloro-benzoyl)-amino]-5,6,7,8-tetrahydro-imidazo[1,2-a]pyridine-3-carboxylic acid indan-1-ylamide] | 45
CCCCN(C(=O)c1cccc(Cl)c1)c1nc2n(c1C(=O)NCCc1c[nH]c3c(C)cccc13)CCCC2 [Example 69, 2-[butyl-(3-chloro-benzoyl)-amino]-5,6,7,8-tetrahydro-imidazo[1,2-a]pyridine-3-carboxylic acid [2-(7-methyl-1H-indol-3-yl)-ethyl]-amide] | 48
CN(C(=O)c1cccc2ccccc12)c1nc2n(c1C(=O)NCCc1ccc(Oc3ccccc3)cc1)CCCC2 [Example 68, 2-[methyl-(naphthalene-1-carbonyl)-amino]-5,6,7,8-tetrahydro-imidazo[1,2-a]pyridine-3-carboxylic acid [2-(4-phenoxy-phenyl)-ethyl]-amide] | 87
CN(C(=O)c1cccc2ccccc12)c1nc2n(c1C(=O)N1CCN(CCc3ccccc3)CC1)CCCC2 [Example 174, naphthalene-1-carboxylic acid methyl-[3-(4-phenethyl-piperazine-1-carbonyl)-5,6,7,8-tetrahydro-imidazo[1,2-a]pyridin-2-yl]-amide] | 47
CN(C(=O)c1cccc2ccccc12)c1nc2n(c1C(=O)NC1CCCCC1)CCCC2 [Example 154, 2-[methyl-(naphthalene-1-carbonyl)-amino]-5,6,7,8-tetrahydro-imidazo[1,2-a]pyridine-3-carboxylic acid cyclohexylamide] | 92
CCCCN(C(=O)c1cccc(Cl)c1)c1nc2n(c1C(=O)N1CCN(CCCc3ccccc3)CC1)CCCC2 [Example 26, N-butyl-3-chloro-N-{3-[4-(3-phenyl-propyl)-piperazine-1-carbonyl]-5,6,7,8-tetrahydro-imidazo[1,2-a]pyridin-2-yl}-benzamide] | 93
CN(C(=O)c1cccc2ccccc12)c1nc2n(c1C(=O)N1CCN(CC=Cc3ccccc3)CC1)CCCC2 [Example 173, naphthalene-1-carboxylic acid methyl-{3-[4-(3-phenyl-allyl)-piperazine-1-carbonyl]-5,6,7,8-tetrahydro-imidazo[1,2-a]pyridin-2-yl}-amide] | 74
CN(C(=O)c1cccc2ccccc12)c1nc2n(c1C(=O)NC1CCN(Cc3ccc(C(F)(F)F)cc3)C1)CCCC2 (centres unmarked) [Example 30, 2-[methyl-(naphthalene-1-carbonyl)-amino]-5,6,7,8-tetrahydro-imidazo[1,2-a]pyridine-3-carboxylic acid [1-(4-trifluoromethyl-benzyl)-pyrrolidin-3-yl]-amide] | 85
CC(NC(=O)c1c(N(C)C(=O)c2cccc(Cl)c2)nc2n1CCCC2)C12CC3CC(CC(C3)C1)C2 (centres unmarked) [Example 165, 2-[(3-chloro-benzoyl)-methyl-amino]-5,6,7,8-tetrahydro-imidazo[1,2-a]pyridine-3-carboxylic acid (1-adamantan-1-yl-ethyl)-amide] | 39
CN(C(=O)c1cccc2ccccc12)c1nc2n(c1C(=O)NCc1ccccc1OC(F)(F)F)CCCC2 [Example 99, 2-[methyl-(naphthalene-1-carbonyl)-amino]-5,6,7,8-tetrahydro-imidazo[1,2-a]pyridine-3-carboxylic acid 2-trifluoromethoxy-benzylamide] | 33
COc1cc(Br)c(CN2CCC(NC(=O)c3c(N(C)C(=O)c4cccc(Cl)c4)nc4n3CCCC4)C2)cc1OC (centres unmarked) [Example 84, 2-[(3-chloro-benzoyl)-methyl-amino]-5,6,7,8-tetrahydro-imidazo[1,2-a]pyridin-3-carboxylic acid [1-(2-bromo-4,5-dimethoxy-benzyl)-pyrrolidin-3-yl]-amide] | 87
CCCCN(C(=O)c1cccc(Cl)c1)c1nc2n(c1C(=O)NC1CCCCC1)CCCC2 [Example 120, 2-[butyl-(3-chloro-benzoyl)-amino]-5,6,7,8-tetrahydro-imidazo[1,2-a]pyridine-3-carboxylic acid cyclohexylamide] | 61
CN(C(=O)c1cccc2ccccc12)c1nc2n(c1C(=O)N(C)C1CCN(Cc3ccc(-c4ccccc4)cc3)C1)CCCC2 (centres unmarked) [Example 76, 2-[methyl-(naphthalene-1-carbonyl)-amino]-5,6,7,8-tetrahydro-imidazo[1,2-a]pyridine-3-carboxylic acid (1-biphenyl-4-ylmethyl-pyrrolidin-3-yl)-methyl-amide] | 95
CN(C(=O)c1cccc2ccccc12)c1nc2n(c1C(=O)Nc1ccc(C(C)(C)C)cc1)CCCC2 [Example 170, 2-[methyl-(naphthalene-1-carbonyl)-amino]-5,6,7,8-tetrahydro-imidazo[1,2-a]pyridine-3-carboxylic acid (4-tert-butyl-phenyl)-amide] | 80
CN(C(=O)c1cccc2ccccc12)c1nc2n(c1C(=O)NCc1cc(C(F)(F)F)cc(C(F)(F)F)c1)CCCC2 [Example 15, 2-[Methyl-(naphthalene-1-carbonyl)-amino]-5,6,7,8-tetrahydro-imidazo[1,2-a]pyridine-3-carboxylic acid 3,5-bis-trifluoromethyl-benzylamide] | 68
CN(C(=O)c1cccc(Cl)c1)c1nc2n(c1C(=O)NCCc1cccc(C(F)(F)F)c1)CCCC2 [Example 71, 2-[(3-chloro-benzoyl)-methyl-amino]-5,6,7,8-tetrahydro-imidazo[1,2-a]pyridine-3-carboxylic acid [2-(3-trifluoromethyl-phenyl)-ethyl]-amide] | 36
CN(C(=O)c1cccc(Cl)c1)c1nc2n(c1C(=O)NCCC(c1ccccc1)c1ccccc1)CCCC2 [Example 128, 2-[(3-chloro-benzoyl)-methyl-amino]-5,6,7,8-tetrahydro-imidazo[1,2-a]pyridine-3-carboxylic acid (3,3-diphenyl-propyl)-amide] | 85
CCCCN(C(=O)c1cccc(Cl)c1)c1nc2n(c1C(=O)N(C)C1CCN(Cc3c(Cl)cccc3Cl)C1)CCCC2 (centres unmarked) [Example 87, 2-[butyl-(3-chloro-benzoyl)-amino]-5,6,7,8-tetrahydro-imidazo[1,2-a]pyridine-3-carboxylic acid [1-(2,6-dichloro-benzyl)-pyrrolidin-3-yl]-methyl-amide] | 93
Cc1ccc(NC(=O)c2c(N(C)C(=O)Cc3ccccc3)nc3n2CCCC3)cc1 [Example 159, 2-(methyl-phenylacetyl-amino)-5,6,7,8-tetrahydro-imidazo[1,2-a]pyridine-3-carboxylic acid p-tolylamide] | 37
CCCCN(C(=O)c1cccc(Cl)c1)c1nc2n(c1C(=O)NCC1COc3ccccc3O1)CCCC2 (centres unmarked) [Example 77, 2-[butyl-(3-chloro-benzoyl)-amino]-5,6,7,8-tetrahydro-imidazo[1,2-a]pyridine-3-carboxylic acid (2,3-dihydro-benzo[1,4]dioxin-2-ylmethyl)-amide] | 56
CCCCN(C(=O)c1cccc(Cl)c1)c1nc2n(c1C(=O)NC(C)c1ccc3ccccc3c1)CCCC2 (centres unmarked) [Example 141, 2-[butyl-(3-chloro-benzoyl)-amino]-5,6,7,8-tetrahydro-imidazo[1,2-a]pyridine-3-carboxylic acid (1-naphthalen-2-yl-ethyl)-amide] | 41
CCCCN(C(=O)c1cccc(Cl)c1)c1nc2n(c1C(=O)N1CCN(c3cccc(C(F)(F)F)c3)CC1)CCCC2 [Example 79, N-butyl-3-chloro-N-{3-[4-(3-trifluoromethyl-phenyl)-piperazine-1-carbonyl]-5,6,7,8-tetrahydro-imidazo[1,2-a]pyridin-2-yl}-benzamide] | 83
CCCCN(C(=O)c1cccc(Cl)c1)c1nc2n(c1C(=O)NCc1cccc(C)c1C)CCCC2 [Example 133, 2-[butyl-(3-chloro-benzoyl)-amino]-5,6,7,8-tetrahydro-imidazo[1,2-a]pyridine-3-carboxylic acid 2,3-dimethyl-benzylamide] | 34
CC(C)CC(NC(=O)c1c(N(C)C(=O)c2cccc3ccccc23)nc2n1CCCC2)C(=O)OCc1ccccc1 (centres unmarked) [Example 57, 4-methyl-2-({2-[methyl-(naphthalene-1-carbonyl)-amino]-5,6,7,8-tetrahydro-imidazo[1,2-a]pyridine-3-carbonyl}-amino)-pentanoic acid benzyl ester] | 31

same assay, conditions: radioligand at BTX binding site; rat cerebral cortex synaptosomes

Compound | Kd [nM]
[^3H]-batrachotoxinin A20 α-benzoate [reference compound] | 24.6 ± 1.56
